Data reported in patent publication US20080262228A1, “Metabolites of 5-fluoro-8- quinoline and methods of preparation and uses thereof” (Wyeth, priority 2006, published 2008).
Structures can show the parent of a compound that is named as a salt. Where two headings read alike, the source gives them in different places. One block for each molecule: values may come before it.

Test: In vivo metabolism of [14C]COMPOUND I in Sprague-Dawley rats, single oral 5 mg/kg dose
Design: species or system rat
Settings: for Chromatographic Distribution of Radioactivity in Pooled Plasma Samples: 5 mg/kg oral [14C]COMPOUND I; for percent of total radioactivity in the fecal extract: pooled 0-24 hr feces; for Source: P, plasma, F, feces, B, brain
Protocol: Dose preparation, animal dosing, and specimen collection were performed at Wyeth Research, Collegeville, Pa. The vehicle contained 2% (w/v) polysorbate 80, NF and 0.5% (w/v) methylcellulose (4000 cps) in water. [^14C]COMPOUND I trisuccinate salt (36.6 mg) and non-labeled COMPOUND I trisuccinate salt (26.7 mg) were dissolved in 1 mL of ethanol and suspended in 35 mL of the vehicle with stirring. The target [^14C]COMPOUND I concentration was approximately 1 mg/mL as free base and 70 μCi/mL with a target specific activity of 70 μCi/mg. Three pre- and post-dose aliquots (100 μL) were taken for the determination of radiochemical purity, drug and radioactivity concentrations and specific activity (see below).
Male rats weighing from 323 to 354 g and female rats weighing from 270 to 317 g at the time of dosing were purchased from Charles River Laboratories (Wilmington, Mass.). Non-fasted rats were given a single 5 mg/kg (˜350 μCi/kg) dose of [^14C]COMPOUND I at a volume of 5.0 mL/kg via intragastric gavage. Three rats were dosed for each time point. Animals were provided Purina rat chow and water ad libitum, and were kept individually in metabolism cages.
Blood samples were collected at 1, 3, 6 and 24 hr from male rats and at 1 and 3 hr from female rats after dose administration by cardiac puncture into tubes containing EDTA as the anticoagulant and placing them on ice. Triplicate aliquots (50 μL) of whole blood were removed and plasma was immediately obtained from the remaining blood by centrifugation at 4° C. Whole brain samples were collected after saline perfusion at 1, 3, 6 and 24 hr post-dose from male rats and at 1 and 3 hr post-dose from female rats. Urine samples were collected on dry ice from male rats at intervals of 0-6 and 6-24 hr post-dose. Feces were collected from male rats at 0-24 hr post-dose at room temperature. The biological specimens and aliquots of the dose suspension were stored at approximately −70° C. until analysis.
Triplicate aliquots of diluted dose (20 μL), dose fractions (10 μL), and plasma (50 μL) and urine (100 μL) from individual rats were analyzed for radioactivity concentrations. Radioactivity determinations were made with a Tri-Carb Model 3100 TR liquid scintillation counter (LSC) (Perkin Elmer) using 5 mL of Ultima Gold as the scintillation fluid.
Brain and fecal samples from individual rats were weighed and homogenized in water at a volume-to-weight ratio of about 3:1 and 5:1, respectively, with a Polytron PT homogenizer at ice-cold temperature. Duplicate aliquots of blood (50 μL), brain homogenates (0.2 g) and fecal homogenates (0.2 g) were placed on Combusto-cones with Combusto-pads and allowed to dry overnight. Samples were combusted with a model 307 Tri-Carb Sample Oxidizer, equipped with an Oximate-80 Robotic Automatic Sampler (Perkin Elmer). The liberated ^14CO2 was trapped with Carbo-Sorb E carbon dioxide absorber, mixed with PermaFluor® E^+ liquid scintillation cocktail, and counted in a Tri-Carb Model 3100 TR/LL liquid scintillation counter (Perkin Elmer).
Plasma samples were pooled by equal volumes from three animals at each time point (1, 3, 6 and 24 hr for males; 1 and 3 hr for females). Aliquots of 2 mL of pooled plasma were mixed with 2 mL of acetonitrile, placed on ice for about 10 min, and then centrifuged at 4° C. The supernatant was transferred to a clean tube. The protein pellets were extracted two more times with 4 mL of acetonitrile. The supernatants from precipitation and extraction of each sample were pooled, mixed, and evaporated at 22° C. under nitrogen in a TurboVap LV evaporator (Caliper Life Sciences, Hopkinton, Mass.) to about 1.0 mL. The concentrated extract was centrifuged, the supernatant volume measured and the extraction efficiency was determined by analyzing duplicate 10 μL aliquots for radioactivity concentrations.

[1] = female, Sprague-Dawley, rat, brain and plasma, po, 5 mg/kg, read-out: Brain/Plasma COMPOUND I Ratio
[2] = male, Sprague-Dawley, rat, brain and plasma, po, 5 mg/kg, read-out: Brain/Plasma COMPOUND I Ratio

Kp (Sprague-Dawley, rat, brain and plasma, rats, 5 mg/kg oral, read-out: brain-to-plasma ratios of COMPOUND I concentrations): 0.47 to 0.85
concentration at 1 hr (Sprague-Dawley, rat, female rats, 1 hr, 5 mg/kg oral, mean brain radioactivity x percentage of COMPOUND I in pooled sample, read-out: Brain COMPOUND I Concentrations): 106 ng/g
concentration at 3 hr (Sprague-Dawley, rat, female rats, 3 hr, 5 mg/kg oral, mean brain radioactivity x percentage of COMPOUND I in pooled sample, read-out: Brain COMPOUND I Concentrations): 34.7 ng/g
concentration at 1 hr (Sprague-Dawley, rat, male rats, 1 hr, 5 mg/kg oral, mean brain radioactivity x percentage of COMPOUND I in pooled sample, read-out: Brain COMPOUND I Concentrations): 40.9 ng/g
concentration at 3 hr (Sprague-Dawley, rat, male rats, 3 hr, 5 mg/kg oral, mean brain radioactivity x percentage of COMPOUND I in pooled sample, read-out: Brain COMPOUND I Concentrations): 15.9 ng/g
concentration at 6 hr (Sprague-Dawley, rat, male rats, 6 hr, 5 mg/kg oral, mean brain radioactivity x percentage of COMPOUND I in pooled sample, read-out: Brain COMPOUND I Concentrations): 10 ng/g
Chromatographic Distribution of Radioactivity in Pooled Plasma Samples (female rats, 1 hr): 16.4%
percent of total brain radioactivity (female rats, 1 hr, pooled brain, 5 mg/kg oral): 79.5%
Chromatographic Distribution of Radioactivity in Pooled Plasma Samples (female rats, 3 hr): 14.6%
percent of total brain radioactivity (female rats, 3 hr, pooled brain, 5 mg/kg oral): 70.7%
Kp at 1 h [1]: 0.77
Kp at 3 h [1]: 0.58
Chromatographic Distribution of Radioactivity in Pooled Plasma Samples (male rats, 1 hr): 16.9%
percent of total brain radioactivity (male rats, 1 hr, pooled brain, 5 mg/kg oral): 80.3%
Chromatographic Distribution of Radioactivity in Pooled Plasma Samples (male rats, 3 hr): 15.5%
percent of total brain radioactivity (male rats, 3 hr, pooled brain, 5 mg/kg oral): 63.8%
Chromatographic Distribution of Radioactivity in Pooled Plasma Samples (male rats, 6 hr): 8.7%
percent of total brain radioactivity (male rats, 6 hr, pooled brain, 5 mg/kg oral): 60.5%
percent of total plasma radioactivity (male rats, from 1 to 6 hr post-dose, 5 mg/kg oral): 8.7-16.9%
percent of total radioactivity in the fecal extract (male rats, 5 mg/kg oral): 8.1%
Kp at 1 h [2]: 0.47
Kp at 3 h [2]: 0.54
Kp at 6 h [2]: 0.85
Source (rats, 5 mg/kg oral): P, B, F
Structure (SMILES): COc1cc(N2CCN(C3CCN(c4ccc(F)c5cccnc45)CC3)CC2)c2ncccc2c1 [COMPOUND I, 5-Fluoro-8-{4-[4-(6-methoxyquinolin-8-yl)piperazin-1-yl]piperidin-1-yl}quinoline]

percent of total brain radioactivity (female rats, between 1 and 3 hr post-dose, 5 mg/kg oral): 11.3-13.6%
percent of total brain radioactivity (male rats, between 1 and 6 hr post-dose, 5 mg/kg oral): 9.0-9.4%
percent of total radioactivity in the fecal extract (male rats, 5 mg/kg oral): 15.1%
Source (rats, 5 mg/kg oral): B, F
Structure (SMILES): Oc1cc(N2CCN(C3CCN(c4ccc(F)c5cccnc45)CC3)CC2)c2ncccc2c1 [Metabolite M21, 8-{4-[1-(5-fluoroquinolin-8-yl)piperidin-4-yl]piperazin-1-yl}quinolin-6-ol trihydrochloride]
